# Measured values published in PubChem BioAssay (NCI).
#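 Five concentrations, 48 hours, 96-well plates. TGI is the concentration that stops growth completely.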
# Legend:
# Experiment in all cases: inhibition of tumour cell growth, NCI panel, 48 h
# SK-MEL-28 melanoma = test system: SK-MEL-28 melanoma
# RPMI-8226 leukemia = test system: RPMI-8226 leukemia
# NCI/ADR-RES ovarian = test system: NCI/ADR-RES ovarian
# HT29 colon = test system: HT29 colon
# HCC-2998 colon = test system: HCC-2998 colon
# SK-OV-3 ovarian = test system: SK-OV-3 ovarian
# SF-268 CNS = test system: SF-268 CNS
# SK-MEL-5 melanoma = test system: SK-MEL-5 melanoma
# SW-620 colon = test system: SW-620 colon
# MDA-MB-435 = test system: MDA-MB-435
# CCRF-CEM leukemia = test system: CCRF-CEM leukemia
# MOLT-4 leukemia = test system: MOLT-4 leukemia
Structure (SMILES),TGI (SK-MEL-28 melanoma) [µM],TGI (RPMI-8226 leukemia) [µM],TGI (NCI/ADR-RES ovarian) [µM],TGI (HT29 colon) [µM],TGI (HCC-2998 colon) [µM],TGI (SK-OV-3 ovarian) [µM],TGI (SF-268 CNS) [µM],TGI (SK-MEL-5 melanoma) [µM],TGI (SW-620 colon) [µM],TGI (MDA-MB-435) [µM],TGI (CCRF-CEM leukemia) [µM],TGI (MOLT-4 leukemia) [µM]
Cc1ccc(-c2cn3c(nc4ccccc43)c(/C=C/c3ccco3)n2)cc1,> 100,67.7,> 100,> 100,> 100,> 100,> 100,> 100,> 100,> 100,,
CN(CCc1ccccn1)c1ccc2c(c1)C(=O)c1ccccc1-2,> 100,> 100,> 100,> 100,> 100,> 100,> 100,98.3,> 100,> 100,> 100,
O=C1c2c(Br)sc(Br)c2[C@@H](O)[C@H]1O,41,47.6,56.5,40.4,34.4,29.4,24.7,32.4,12.3,25.8,6.32,32.6
COc1ccc(N2C(=O)C(=O)C3(CCCCC3)C2=O)c2ccccc12,> 10,> 10,> 10,> 10,> 10,> 10,> 10,> 10,> 10,> 10,> 10,> 10
CCCCCCCCCCCCCCCc1nc(=S)[nH][nH]1,> 100,> 100,,> 100,> 100,> 100,> 100,,,,> 100,> 100
COc1ccc(CCn2cncn2)cc1,> 100,,,> 100,> 100,> 100,> 100,> 100,> 100,,> 100,> 100
COc1ccc(C2C3CCc4ccccc4C3=NN2S(=O)(=O)c2cccc(C(=O)O)c2OC)cc1 (stereo unspecified),,54.7,11.7,> 100,,17.7,> 100,> 100,> 100,4.15,81.7,> 100
CN1CCC(C(O)(c2ccccc2)c2ccc(Br)cc2)CC1 (stereo unspecified),35.1,45.8,> 100,51.9,25.1,> 100,> 100,27.9,61.1,30.7,> 100,61.3
N#C/C(=C(/O)CCl)c1nc2ccccc2o1,3.5,7.87,5.4,22.5,,24.7,8.57,3.83,> 100,10.8,90.7,10.3
COC(=O)c1c(O)ccc2c1c1cc3ccccc3c(O)c1n2CCc1ccc(OC)c(OC)c1,91.1,> 100,> 100,18.6,86.8,> 100,> 100,> 100,,> 100,> 100,> 100
O=P(NCCCO)(OCc1ccccc1)N(CCCl)CCCl (stereo unspecified),> 100,,> 100,> 100,> 100,> 100,> 100,> 100,> 100,,> 100,> 100
C/C(C=O)=C/[C@@]1(C)O[C@@H](C)[C@@](C)(O)[C@@H]1O,> 100,> 100,56.1,> 100,48.2,> 100,63.7,> 100,> 100,> 100,> 100,25.7
CC(C)CC(N)C(=O)NC(C(=O)NC(CCCNC(=N)N)C(=O)NC(CS)C(=O)NC1CSCC(C(=O)NC(Cc2ccccc2)C(=O)NC(C(=O)NC(CCCNC(=N)N)C(=O)O)C(C)C)NC(=O)C2CCCN2C(=O)C(CCCCN)NC(=O)C2CCCN2C(=O)C2CCCN2C(=O)C(Cc2ccc(O)cc2)NC(=O)C(CO)NC(=O)C(CCCCN)NC(=O)C(C(C)O)NC(=O)C(Cc2c[nH]c3ccccc23)NC1=O)C(C)C (stereo unspecified),> 25,> 25,> 25,> 25,,> 25,> 25,> 25,> 25,> 25,> 25,> 25
CCOc1nc2c(N3CCCC3)nc(N3CCNCC3)nc2nc1NCc1ccccc1,3.37,3.37,8.6,2.6,2.62,3.26,3.03,2.71,3.49,2.72,3.49,2.8
